Test results reported in PubChem BioAssay AID652289 (Broad Institute, 2013).
Values joined by “and” are separate entries in the source; they are usually repeats but may differ in a detail not shown here. Equal values may be shown once. Active and inactive are the calls of the source. How the calls were made is not given here.

Tested on: not listed separately
Assay: light production inducers, absence of autoinducers, V. cholerae bh1651 strain, confirmatory (AID 652289)
Conditions: V. cholerae BH1651 luxOD47E, luciferase light induction, 6 h; at 35 µM (top of the series)

SMILES | light induction
O=C(CC1CCCCC1)Nc1nnc(-c2ccc3c(c2)CCCC3)o1 | 0.061% (inactive)

Same assay, conditions: V. cholerae BH1651 luxOD47E, luciferase light induction, 6 h; at 50 µM (top of the series)

SMILES | light induction
CCCCCCCCCC(=O)C(O)CC (stereo unspecified) | 0.038% (inactive)

Same assay, conditions: V. cholerae BH1651 luxOD47E, luciferase light induction, 6 h; at 80 µM (top of the series)

SMILES | light induction
O=C(CC1CCCCC1)Nc1nnc(-c2cccnc2)o1 | -0.016% (inactive)
O=C(Nc1nnc(-c2ccc(Cl)cc2)o1)C1CCCCC1 | -0.026% (inactive)
Cc1ccc2cc3c(NC(=O)c4ccoc4)nn(C)c3nc2c1 | 2.86% (inactive)
O=C(Nc1nnc(-c2cccc(Cl)c2)o1)C1CCCCC1 | 0.065% (inactive)
O=C(Nc1nnc(-c2ccc3c(c2)CCCC3)o1)C1CCC1 | -0.005% (inactive)
CCC(C)(C)C(=O)Nc1nnc(-c2ccc3c(c2)OCCO3)o1 | -0.006% (inactive)

Same assay, conditions: V. cholerae BH1651 luxOD47E, luciferase light induction, 6 h; at 100 µM (top of the series)

SMILES | light induction
COc1ccc(-c2nnc(NC(C)=O)o2)cc1 | 0.045% (inactive)
CN(C)/C=N/c1nnc(-c2ccc3c(c2)OCCO3)o1 | 0.039% (inactive)
O=S(=O)(Nc1nnc(-c2ccc3c(c2)OCCO3)o1)c1ccc(Cl)cc1 | -0.005% (inactive)
CC(C)c1ccc2cc3c(NC(=O)c4ccco4)nn(C)c3nc2c1 | 0.507% (inactive)
CN1CCC(C(=O)Nc2nnc(-c3ccc4c(c3)OCCO4)o2)CC1 | 0.052% (inactive)
COc1cccc(-c2nnc(NC(=O)C3CCCCC3)o2)c1 | -0.005% (inactive)
Cc1ccc2cc3c(NC(=O)c4ccccn4)nn(C)c3nc2c1 | 0.001% (inactive)
Cc1ccc2cc3c(NC(=O)Cc4ccco4)nn(C)c3nc2c1 | 1.12% (inactive)
c1ccc(CNc2nnc(-c3ccc4c(c3)OCCO4)o2)cc1 | -0.004% (inactive)
O=C(Nc1nnc(-c2ccc3c(c2)OCCO3)o1)C1CC1 | 0.004% (inactive)
O=C(Nc1nnc(-c2ccc3c(c2)OCCO3)o1)C(F)(F)c1ccccc1 | -0.004% (inactive)
CCCCCCCCCC(=O)[C@H](O)CC (racemic) | 0.014% (inactive)
COc1ccc(S(=O)(=O)Nc2nnc(-c3ccc4c(c3)OCCO4)o2)cc1 | 0.005% (inactive)
Cc1ccc2cc3c(NC(=O)c4cc5ccccc5o4)nn(C)c3nc2c1 | -0.007% (inactive)
O=C(Nc1nnc(-c2cccnc2)o1)C1CCC1 | 0.001% (inactive)
O=C(Cc1ccc(-c2ccccc2)cc1)NC1CCC1 | -0.023% (inactive)
CC(C)(C)OC(=O)N1CCC(C(=O)Nc2nnc(-c3ccc4c(c3)OCCO4)o2)CC1 | 0.028% (inactive)
O=C(Nc1nnc(C2CCCC2)o1)C1CCCCC1 | -0.015% (inactive)
O=C(Nc1nnc(-c2ccncc2)o1)C1CCC1 | 0.055% (inactive)
Cc1ccc2cc3c(NC(=O)c4ccc(C)o4)nn(C)c3nc2c1 | -0.015% (inactive)
O=C(Nc1nnc(-c2ccccc2Cl)o1)C1CCCCC1 | -0.01% (inactive)
C(=N\c1nnc(-c2ccc3c(c2)OCCO3)o1)/c1ccccc1 | 0.005% (inactive)
Cn1ccc(NC(=O)c2ccco2)n1 | 0.053% (inactive)
O=C(Nc1nnc(-c2ccc3c(c2)OCCO3)o1)C1CCC1 | 0.013% (inactive)
Cn1nc(NC(=O)c2ccco2)c2cc3ccc(C(C)(C)C)cc3nc21 | 0% (inactive)
CCn1nnnc1NCc1ccc(C(C)C)cc1 | -0.004% (inactive)

Tested on: V. cholerae BH1651 luxOD47E, luciferase light induction, 6 h
Assay: as above
Conditions: not given

SMILES | AC40
Cn1nc(NC(=O)c2ccco2)c2cc3ccccc3nc21 | 3.58 µM
Cc1cc(F)c2cc3c(NC(=O)c4ccco4)nn(C)c3nc2c1 | 33.5 µM
O=C(Nc1nnc(-c2ccc3c(c2)OCCO3)o1)C1CCCCCC1 | 6.99 µM
CCc1ccc2cc3c(NC(=O)c4ccco4)nn(C)c3nc2c1 | 32.9 µM
O=C(Nc1nnc(-c2ccc3c(c2)OCCO3)o1)C1CCCCC1 | 5.31 µM and 2.57 µM
COc1ccc2cc3c(NC(=O)c4ccco4)nn(C)c3nc2c1 | 2.73 µM
COc1ccc(-c2nnc(NC(=O)C3CCCCC3)o2)cc1 | > 100 µM (inactive)
Cc1ccc2cc3c(NC(=O)c4cccs4)nn(C)c3nc2c1 | 70.8 µM
Cc1ccc2cc3c(NC(=O)C4CCCC4)nn(C)c3nc2c1 | 40.6 µM
Cc1ccc2cc3c(NC(=O)c4ccco4)nn(C)c3nc2c1 | 5.26 µM and 15.3 µM
Cc1cc(F)cc2nc3c(cc12)c(NC(=O)c1ccco1)nn3C | 41.3 µM
COc1ccccc1-c1nnc(NC(=O)C2CCCCC2)o1 | > 100 µM (inactive)
Cc1cc2cc3c(NC(=O)c4ccco4)nn(C)c3nc2cc1C | 63.3 µM
O=C(Nc1nnc(-c2cccnc2)o1)C1CCCCC1 | 61.3 µM
Cn1nc(NC(=O)c2ccco2)c2cccnc21 | 58.4 µM
Cc1cc2nc3c(cc2cc1F)c(NC(=O)c1ccco1)nn3C | 68.7 µM
Cn1nc(NC(=O)c2ccco2)c2ccccc21 | 89.4 µM
